Assay results as given in patent US5723475A, “Arylpiperidine and arylpiperazine derivatives and medicament containing the same” (Suntory Limited, priority 1995, dated 1998).

Columns and labels:
Sodium Channel = assay: Veratridine-induced Sodium Channel Activity Inhibitory Effect (suppression of veratridine-induced depolarization in synaptosomes, Rhodamine 6G); type: biochemical, Wistar rats; details: compound 0.1 μM; rat brain synaptosomes
Procedure: Veratridine-induced Sodium Channel Activity Inhibitory Effect
The membrane potential of the synaptosomes prepared from the brain membrane of Wistar rats (male, 10 to 12 weeks old) was measured by the method of Aiuchi et al. [T. Aiuchi et al: Biochimi. Biophys. Acta.

T-type Ca^2+ channel = assay: T-Type Calcium Channel Inhibitory Effect (whole-cell patch clamp, hippocampal CA1 pyramidal cells); type: cell-based, Wistar rats; details: suppression of peak current after one minute of application; rat hippocampal CA1 pyramidal cells; read-out: T-type Ca^Z+ channel inhibitory effect IC50
Procedure: T-Type Calcium Channel Inhibitory Effect
The hippocampal CA1 pyramidal cells were isolated from Wistar rats (male/female, 1 week old) in accordance with the method of Takahashi et al. [K. Takahashi et al.; J. Pharmacol. Exp. Ther., 256, 169 (1991)] and the T-type calcium current under conditions of a fixed membrane potential was measured using the whole-cell configuration of the pach clamp technique. The effects of the compounds were evaluated from the rate of suppression of the peak current after one minute of application using the concentration clamp method.

Dopamine D2 receptor = target: T1, Dopamine D2 receptor (Rattus norvegicus, UniProt P61169); assay: Dopamine D2 Receptor Blocking Effect ([3H] raclopride binding, striatum membrane fraction); parameters: species or system Wister male rats; details: 1.0 nM [3H] raclopride, 25° C., one hour
T1 construct: membrane fraction prepared from the striatum of Wister male rats; from tissue; host or cells: striatum of male Wistar rats (6 weeks old), membrane fraction
T1 sequence (P61169 whole entry): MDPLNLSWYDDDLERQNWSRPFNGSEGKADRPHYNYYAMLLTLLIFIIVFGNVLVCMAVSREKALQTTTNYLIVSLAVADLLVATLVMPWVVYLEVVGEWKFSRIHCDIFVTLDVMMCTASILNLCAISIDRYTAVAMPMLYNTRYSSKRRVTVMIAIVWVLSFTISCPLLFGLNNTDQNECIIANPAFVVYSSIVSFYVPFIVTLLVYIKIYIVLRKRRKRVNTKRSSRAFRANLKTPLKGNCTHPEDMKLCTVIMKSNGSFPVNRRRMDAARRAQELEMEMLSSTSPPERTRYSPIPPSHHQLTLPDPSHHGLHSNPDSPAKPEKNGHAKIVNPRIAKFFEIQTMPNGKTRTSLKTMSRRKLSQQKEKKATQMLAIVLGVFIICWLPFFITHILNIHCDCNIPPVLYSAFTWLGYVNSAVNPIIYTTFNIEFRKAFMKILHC
Procedure: Dopamine D2 Receptor Blocking Effect
57 μl of the membrane fraction prepared from the striatum of Wister male rats (6 weeks old) was incubated in a buffer at 25° C. for one hour along with the compound and 1.0 nM [^3 H) raclopride. A GF/C glass filter (0.1% polyethylene imine treatment) was used for separation of B/F, then the radioactivity was measured by a beta plate and the effect of the compound was evaluated.

[1] = acute toxicity, death rate up to 24 hours after intravenous injection; details: mouse, in vivo, ddY mice (male, 6 weeks old), read-out: 50% lethal dosage LD50 of acute toxicity
Description: The compounds of the present invention are low in toxicity.

dopamine D2 receptors = details: due to its action of blocking dopamine D2 receptors; cited from earlier work

Row | Compound | Anti-veratridine effect (inhibiting rate %) (Sodium Channel) [%] | also measured
1 | O=C(CN1CCC(c2ccc(Oc3ccccc3)cc2)CC1)N[C@@H]1C[C@H]1c1ccccc1 (relative stereo) [Compound 56, N-(trans-2-phenyl-1-cyclopropyl)-4-(4-phenoxyphenyl)-1-piperidinacetamide] | 38.4 | 
2 | O=C(CN1CCC(c2ccc(Cc3ccc(F)cc3)cc2)CC1)N[C@@H]1C[C@H]1c1ccccc1 (relative stereo) [Compound 57, N-(trans-2-phenyl-1-cyclopropyl)-4-[4-(4-fluorophenyl)methylphenyl]-1-piperidinacetamide] | 32.8 | IC50 (T-type Ca^2+ channel): 1.5 µM
3 | O=C(CCCN1CC=C(c2ccc(Oc3ccccc3)cc2)CC1)NC1CCCOc2ccccc21 (stereo not drawn) [Compound 29, 5-[4-(4-(4-phenoxyphenyl)-1,2,3,6-tetrahydropyridine-1-yl)butyrylamino]-2,3,4,5-tetrahydro-1-benzoxepine] | 27.9 | 
4 | O=C(CCCN1CCC(c2ccc(Oc3ccccc3)cc2)CC1)NC1CCCOc2ccccc21 (stereo not drawn) [Compound 30, 5-[4-(4-(4-phenoxyphenyl)piperidin-1-yl)butyrylamino]-2,3,4,5-5 tetrahydro-1-benzoxepine] | 21.4 | 
5 | O=C(CCCN1CC=C(c2ccc(Oc3ccccc3)cc2)CC1)Nc1ccccc1Cc1ccccc1 [Compound 32, 2-benzyl-1-[4-(4-(4-phenoxyphenyl)-1,2,3,6-tetrahydropyridin-1-yl)butyrylamino]benzene] | 35.7 | IC50 (Dopamine D2 receptor): > 1 µM
6 | O=C(CCCN1CCC(c2ccc(Oc3ccccc3)cc2)CC1)Nc1ccccc1Cc1ccccc1 [Compound 33, 2-benzyl-1-[4-(4-(4-phenoxyphenyl)piperidin-1-yl)butyrylamino]benzene] | 37.5 | 
7 | O=C(CCCN1CCN(c2ccc(Cc3ccc(F)cc3)cc2)CC1)Nc1ccccc1Cc1ccccc1 [Compound 34, 2-benzyl-1-[4-(4-(4-(4-fluorophenyl)methylphenyl)piperazin-1-yl)butyrylamino]benzene] | 50.2 | IC50 (Dopamine D2 receptor): 7 µM; IC50 (T-type Ca^2+ channel): 10 µM
8 | O=C(CCCN1CCC(c2ccc(Cc3ccc(F)cc3)cc2)CC1)Nc1ccccc1Cc1ccccc1 [Compound 35, 2-benzyl-1-[4-(4-(4-(4-fluorophenyl)methylphenyl)piperidin-1-yl)butyrylamino]benzene] | 40.6 | 
9 | O=C(CCCCCN1CC=C(c2ccc(Oc3ccccc3)cc2)CC1)Nc1ccccc1Cc1ccccc1 [Compound 36, 2-benzyl-1-[6-(4-(4-phenoxyphenyl)-1,2,3,6-tetrahydropyridine-1-yl)hexanoylamino]benzene] | 55.1 | IC50 (Dopamine D2 receptor): > 1 µM
10 | O=C(CCCCCN1CCC(c2ccc(Oc3ccccc3)cc2)CC1)Nc1ccccc1Cc1ccccc1 [Compound 37, 2-benzyl-1-[6-(4-(4-phenoxyphenyl)piperidin-1-yl)hexanoylamino]benzene] | 62 | IC50 (Dopamine D2 receptor): > 1 µM
11 | O=C(CCCCCN1CCN(c2ccc(Cc3ccc(F)cc3)cc2)CC1)Nc1ccccc1Cc1ccccc1 [Compound 38, 2-benzyl-1-[6-(4-(4-(4-fluorophenyl)methylphenyl)piperazin-1-yl)hexanoylamino]benzene] | 56.6 | 
12 | Cc1cccc(Cc2ccccc2)c1NC(=O)CN1CCC(c2ccc(Oc3ccccc3)cc2)CC1 [Compound 39, 2-benzyl-1-[2-(4-(4-phenoxyphenyl)piperidin-1-yl)acetylamino]-6-methylbenzene] | 16.6 | 
13 | Cc1cccc(Cc2ccccc2)c1NC(=O)CCCN1CCC(c2ccc(Oc3ccccc3)cc2)CC1 [Compound 41, 2-benzyl-1-[4-(4-(4-phenoxyphenyl)piperidin-1-yl)butyrylamino]-6-methylbenzene] | 30.4 | 
14 | Cc1cccc(Cc2ccccc2)c1NC(=O)CCCN1CCN(c2ccc(Cc3ccc(F)cc3)cc2)CC1 [Compound 42, 2-benzyl-1-[4-(4-(4-(4-fluorophenyl)methylphenyl)piperazin-1-yl)butyrylamino]-6-methylbenzene] | 16.6 | 
15 | Cc1cccc(C)c1NC(=O)CCCN1CCC(c2ccc(Oc3ccccc3)cc2)CC1 [Compound 47, 2,6-dimethyl-1-[4-(4-(4-phenoxyphenyl)piperidin-1-yl)butyrylamino]benzene] | 17.3 | 
16 | Cc1cc(C)c(NC(=O)CCCN2CCC(c3ccc(Cc4ccc(F)cc4)cc3)CC2)c(C)c1 [Compound 49, 2,4,6-trimethyl-1-[4-(4-(4-(4-fluorophenyl)methylphenyl)piperidine-1-yl)butyrylamino]benzene] | 17 | 
17 | O=C(CCCN1CCN(c2ccc(Cc3ccc(F)cc3)cc2)CC1)N1CCCOc2ccccc21 [Compound 53, 5-[4-(4-(4-(4-fluorophenyl)methylphenyl)piperazin-1-yl)butyryl]-2,3,4,5-tetrahydro-1,5-benzoxazepine] | 33.8 | IC50 (Dopamine D2 receptor): 1.26 µM; LD50 at 24 h [1]: 46.5 mg/kg; IC50 (T-type Ca^2+ channel): 2.8 µM
18 | O=C(CCCN1CCC(c2ccc(Cc3ccc(F)cc3)cc2)CC1)N1CCCOc2ccccc21 [Compound 54, 5-[4-(4-(4-(4-fluorophenyl)methylphenyl)piperidin-1-yl)butyryl]-2,3,4,5-tetrahydro-1,5-benzoxazepine] | 29.4 | 
19 | O=C(CN1CCC(c2ccc(Oc3ccccc3)cc2)CC1)Nc1ccccc1 [Compound 59, N-phenyl-4-(4-phenoxyphenyl)-1-piperidinacetamide] | 32.9 | 
20 | O=C(CN1CCC(c2ccc(Cc3ccc(F)cc3)cc2)CC1)Nc1ccccc1 [Compound 60, N-phenyl-4-[4-(4-fluorophenyl)methylphenyl]-1-piperidinacetamide] | 33.9 | 
21 | O=C(NCCN1CCC(c2ccc(Oc3ccccc3)cc2)CC1)c1ccccc1 [Compound 62, 1-(2-benzoylaminoethyl)-4-(4-phenoxyphenyl)piperidine] | 36 | 
22 | O=C(NCCN1CCC(c2ccc(Oc3ccccc3)cc2)CC1)C1(c2ccccc2)CC1 [Compound 63, 1-[2-(1-phenyl-1-cyclopropylcarboxyamino)ethyl]-4-(4-phenoxyphenyl) piperidine] | 36.2 | 
23 | C=C(c1ccccc1)N(C)C(=O)CN1CCC(c2ccc(Oc3ccccc3)cc2)CC1 [Compound 64, N-methyl-N-(1-phenylvinyl)-4-(4-phenoxyphenyl)-1-piperidinacetamide] | 31.5 | 
24 | Fc1ccc(C(c2ccc(F)cc2)N2CCN(C/C=C/c3ccccc3)CC2)cc1 [Flunarizine] |  | side effect (dopamine D2 receptors): onset of symptoms of Parkinson's disease
